#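 Interpolation was linear, between the two tested concentrations surrounding the appropriate level; five concentrations were tested over 48 hours in 96-well plates. Here, GI50 denotes the concentration required for 50% inhibition of growth. TGI: concentration producing complete growth inhibition.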
# Assays:
# Assay in all cases: NCI tumour cell line growth inhibition, 48 h
# TK-10 renal = system: TK-10 renal
# SK-MEL-28 melanoma = system: SK-MEL-28 melanoma
# MALME-3M melanoma = system: MALME-3M melanoma
# SK-MEL-2 melanoma = system: SK-MEL-2 melanoma
# SF-539 CNS = system: SF-539 CNS
# MOLT-4 leukemia = system: MOLT-4 leukemia
# RXF 393 renal = system: RXF 393 renal
# 786-0 renal = system: 786-0 renal
# SN12C renal = system: SN12C renal
# U251 CNS = system: U251 CNS
Compound,TGI (TK-10 renal),TGI (SK-MEL-28 melanoma),TGI (MALME-3M melanoma),TGI (SK-MEL-2 melanoma),TGI (SF-539 CNS),TGI (MOLT-4 leukemia),TGI (RXF 393 renal),TGI (786-0 renal),TGI (SN12C renal),TGI (U251 CNS),GI50 (TK-10 renal),GI50 (SK-MEL-28 melanoma),GI50 (MALME-3M melanoma),GI50 (SK-MEL-2 melanoma),GI50 (SF-539 CNS),GI50 (MOLT-4 leukemia),GI50 (RXF 393 renal),GI50 (786-0 renal),GI50 (SN12C renal),GI50 (U251 CNS)
CN(C)/C(=N/C(=O)Nc1ccccc1)SCc1ccccc1,> 100 µM,> 100 µM,> 100 µM,> 100 µM,> 100 µM,> 100 µM,> 100 µM,> 100 µM,> 100 µM,> 100 µM,–,–,–,–,–,–,–,–,–,–
Cc1cc(C(=O)NCCN(C)C)c2nc3ccccc3nc2c1,> 59.1 µM,16.1 µM,13.8 µM,17.2 µM,19.4 µM,5.97 µM,19.7 µM,> 61.9 µM,43.7 µM,33.3 µM,–,–,–,–,–,–,–,–,–,–
COc1cc([N+](=O)[O-])c2ncccc2c1O,94.5 µM,7.78 µM,4.74 µM,52.4 µM,9.41 µM,> 100 µM,30.1 µM,> 100 µM,> 100 µM,> 100 µM,10.7 µM,2.77 µM,1.99 µM,9.91 µM,2.59 µM,49.1 µM,10.6 µM,17.9 µM,3.06 µM,3.2 µM
CCCC/C(C)=N/NC(N)=S,> 100 µM,> 100 µM,> 100 µM,> 100 µM,> 100 µM,> 100 µM,> 100 µM,> 100 µM,> 100 µM,> 100 µM,–,–,–,–,–,–,–,–,–,–
CN1C=CN(Cc2ccc(-c3ccccn3)nc2)[CH-]1.CN1C=CN(Cc2ccc(-c3ccccn3)nc2)[CH-]1.[Au+3],27 µM,14.5 µM,10.5 µM,32.4 µM,10.3 µM,12.4 µM,17.8 µM,> 100 µM,> 45 µM,20.8 µM,5.09 µM,2.47 µM,2.21 µM,7.05 µM,2.34 µM,1.1 µM,1.88 µM,6.14 µM,2.98 µM,4.35 µM
COC(=N)/C(=C1\OC(N)=C(c2ccc(Cl)cc2)C1=O)c1ccc(Cl)cc1,> 100 µM,> 100 µM,> 100 µM,> 100 µM,> 100 µM,> 100 µM,> 100 µM,> 100 µM,> 100 µM,> 100 µM,–,–,–,–,–,–,–,–,–,–
COc1ccc2c3c([nH]c2c1)[C@H]1C[C@H]2[C@H](C[C@@H](O)[C@H](OC)[C@H]2C(=O)O)CN1CC3,> 100 µM,> 100 µM,> 100 µM,> 100 µM,> 100 µM,> 100 µM,> 100 µM,> 100 µM,> 100 µM,> 100 µM,–,–,–,–,–,–,–,–,–,–
CC12CC(=O)NN=C1c1ccccc1C2 (stereo not given),> 100 µM,> 100 µM,> 100 µM,> 100 µM,> 100 µM,> 100 µM,> 100 µM,> 100 µM,> 100 µM,> 100 µM,–,–,–,–,–,–,–,–,–,–
Cc1cc(C#Cc2ccccc2)ccc1-n1c(/C=C/c2ccc(O)cc2)nc2ccccc2c1=O,32.8 µM,> 100 µM,7.31 µM,5.76 µM,> 100 µM,8.33 µM,> 100 µM,28.7 µM,38.3 µM,> 100 µM,2.62 µM,4.54 µM,2.12 µM,1.93 µM,5.65 µM,2.36 µM,3.51 µM,3.65 µM,3.77 µM,4.33 µM
CC1=CC(=O)c2[nH]c3ccccc3c2C1=O,9.24 µM,7.98 µM,8.54 µM,13.8 µM,7.79 µM,15.9 µM,6.74 µM,7.71 µM,8.17 µM,> 25 µM,5.04 µM,4.47 µM,4.85 µM,5.37 µM,4.28 µM,5.36 µM,3.47 µM,4.27 µM,4.59 µM,15.4 µM
C=C1C(=O)O[C@H]2[C@H](OC(C)=O)[C@@H](C)CCC/C(C)=C/CC[C@]3(CO3)[C@H](O)C[C@@H]12,4.62 µM,4.8 µM,12.3 µM,31.9 µM,9.27 µM,5.82 µM,11.7 µM,14.1 µM,14.3 µM,12.4 µM,1.83 µM,2.21 µM,2.69 µM,14.8 µM,3.2 µM,2.28 µM,3.16 µM,3.65 µM,4.26 µM,3.71 µM
Cc1ccc(NC(=O)CCC(=O)C(C#N)c2ccc(Cl)cc2)cc1C (stereo not given),> 100 µM,> 100 µM,> 100 µM,> 100 µM,> 100 µM,> 100 µM,> 100 µM,> 100 µM,> 100 µM,> 100 µM,–,–,–,–,–,–,–,–,–,–
COc1ccccc1OCC(O)CO (stereo not given),> 100 µM,> 100 µM,> 100 µM,> 100 µM,> 100 µM,> 100 µM,> 100 µM,> 100 µM,> 100 µM,> 100 µM,> 100 µM,> 100 µM,> 100 µM,> 100 µM,> 100 µM,> 100 µM,> 100 µM,> 100 µM,> 100 µM,> 100 µM
C[C@@H]1CC[C@H]2C(CN3CCN(CC4=C(C(F)(F)F)O[C@@H]5O[C@@]6(C)CC[C@H]7[C@H](C)CC[C@@H]4[C@@]57OO6)CC3)=C(C(F)(F)F)O[C@@H]3O[C@@]4(C)CC[C@@H]1[C@]32OO4,99.7 µM,> 100 µM,> 25.8 µM,> 100 µM,> 100 µM,> 100 µM,> 54.3 µM,> 37.3 µM,> 100 µM,> 39.9 µM,4.2 µM,9.96 µM,2.23 µM,10.6 µM,0.567 µM,5.35 µM,1.05 µM,1.8 µM,3.85 µM,0.653 µM

# From PubChem BioAssay (NCI)
